“Also recorded” adds a separate entry of the source. Read-outs that look alike come from different tables or passages of the source.
Test system: bacteria, fungi, and/or yeasts
Format: binding
[1] = microorganism(s) the targeting peptide binds, as listed in Table 2
[2] = microorganism(s) listed as target(s) of the targeting peptide, wrapped target lists given cell by cell
[3] = microorganism(s) that the targeting peptide binds, as listed in Table 2

Substance | Target(s) [1] | Target(s) [2] | further results
1T-107 (SPVPRFTAVGGVSRGSP) | A. naeslundii, S. epidermidis, S. gordonii,; also recorded: S. mitis, S. mutans, S. oralis,; also recorded: S. salivarious, S. sanguinis |  | 
PF-155 (GRYGDDSKERQGRAQ) |  | C. jeikeium | 
1T-81 (AIATGLDIVDGKFDGYLWA) | S. pneumoniae |  | 
1T-181 (YGKESDP) | A. naeslundii, F. nucleatum, P. gingivalis,; also recorded: T. denticola, S. gordonii,; also recorded: S. mitis, S. mutans, S. oralis,; also recorded: S. salivarious, S. sanguinis |  | 
PF-018 (YYKTYFKEV) |  | E. coli, C. jeikeium | 
1T-226 (KLQEKQIDRNFERVSGYSTYRAVQAAKAKEKGFISLEN) | A. naeslundii, F. nucleatum, S. epidermidis,; also recorded: S. gordonii, S. mitis,; also recorded: S. mutans, S. oralis, S. salivarious,; also recorded: S. sanguinis |  | 
PF-629 (GLAAIATVFALY) |  | yeast and hyphal forms | 
1T-86 (HRKNPVLGVGRRHRAHNVA) | S. mitis, S. oralis, S. salivarious |  | 
1T-222 (RIEASLISAIMFSMFNAIVKFLQK) | F. nucleatum, S. sanguinis |  | 
1T-97 (GVAERNLDRITVAVAIIWTITIVGLGLVAKLG) | A. naeslundii, F. nucleatum, P. gingivalis,; also recorded: S. epidermidis, S. gordonii,; also recorded: S. mitis, S. mutans, S. oralis,; also recorded: S. salivarious, S. sanguinis |  | 
1T-225 (RRSLGNSASFAEWIEYIRYLHYIIRVQFIHFFSKNKKI) | A. naeslundii, F. nucleatum, P. gingivalis,; also recorded: S. epidermidis, S. gordonii,; also recorded: S. mitis, S. mutans, S. oralis,; also recorded: S. salivarious, S. sanguinis |  | 
PF-015 (SIDKRNLYNLKYYE) |  | E. faecalis, C. jeikeium | 
1T-197 (TEILNFLITVCADRENWKIKHGLSDSVLLIFFARFTGAEYW) | A. naeslundii, F. nucleatum, P. gingivalis,; also recorded: S. epidermidis, S. gordonii,; also recorded: S. mitis, S. mutans, S. oralis,; also recorded: S. salivarious, S. sanguinis |  | 
PF-149 (GKVSVLTRVPRSLGGAPANQ) |  | S. epidermidis, M. luteus, E. coli,; also recorded: MRSA, C. jeikeium | 
1T-83 (QKPRKNETFIGYIQRYDIDGNGYQSLPCPQN) | S. pneumoniae |  | 
1T-73 (GWWEELLHETILSKFKITKALELPIQL) | S. pneumoniae |  | 
1T-293 (HVEDCFLLSNARTTAIHGRANPARGEPRTRSE) |  | A. naeslundii, F. nucleatum, P. gingivalis,; also recorded: S. epidermidis, S. gordonii,; also recorded: S. mitis, S. mutans, S. oralis,; also recorded: S. salivarious, S. sanguinis | 
1T-76 (EMRLSKFFRDFILWRKK) | S. pneumoniae |  | 
1T-62 (GCKGCAQRDPCAEPEPYFRLR) | S. epidermidis, P. aeruginosa |  | 
PF-173 (AGRTAIVQGGG) |  | S. epidermidis, M. luteus, P. mirabilis,; also recorded: E. coli, P. aeruginosa,; also recorded: C. albicans, C. jeikeium, C. jejuni | 
PF-041 (ELLVILPGFI) |  | MRSA | 
1T-156 (GRFQISIRGEEKSKVKVQGKGTFTDRNTT) | A. naeslundii, F. nucleatum, P. gingivalis,; also recorded: T. denticola, S. gordonii,; also recorded: S. mitis, S. mutans, S. oralis,; also recorded: S. salivarious, S. sanguinis |  | 
PF-C281 (KKEKLLTAIRLQHRAEIRGYFTIFFLFFRI) |  |  | Target(s) [3]: A. naeslundii, F. nucleatum, P. gingivalis,; also recorded: S. mutans, T. denticola
1T-89 (HEDDKRRGMSVEVLGFEVVQHEE) | S. mitis, S. mutans |  | 
PF-797 (WYYFDNNGYM) |  |  | Target(s) [3]: S. mutans
1T-105 (GEGLPPPVLHLPPPRMSGR) | S. epidermidis, S. gordonii, S. mitis,; also recorded: S. mutans, S. oralis |  | 
1T-30 (GKAKPYQVRQVLRAVDKLETRRKKGGR) | S. aureus, S. epidermidis, C. xerosis,; also recorded: C. striatum, P. aeruginosa |  | 
PF-016 (RKQYDDLSFNFLY) |  | S. epidermidis, E. faecalis, C. jeikeium | 
1T-80 (GGNLGPGFGVIIP) | S. pneumoniae |  | 
1T-67 (GQRQRLTCGRVSGCSEGPSREAAR) | S. aureus, S. epidermidis, C. jeikeium,; also recorded: C. xerosis, C. striatum,; also recorded: P. aeruginosa |  | 

From patent publication US20120003661A1, “METHODS AND DEVICES FOR THE SELECTIVE DETECTION OF MICROORGANISMS” (C3 JIAN, INC., priority 2010, published 2012)
